Data published in patent publication US20060194819A1, “Activation specific inhibitors of nf-kb and method of treating inflammatory processes in cardio-vascular diseases” (PROCORDE GMBH, priority 2003, published 2006).
Where two headings read alike, the source gives them in different places.

Columns and labels:
[1] = tested on: I KappaB alpha phosphorylation; assay: P-IkBalpha detection in Western blot of HeLa cell lysates after TNF alpha stimulation; type: cell-based; details: HeLa cells, 10 and 100 μM
Description: P-IkBα Detektion in Western-Blot Protocol: HeLa cells were maintained in Dulbecco's modified Eagle's medium (Invitrogen) supplemented with 10% fetal bovine serum, 2 mM L-glutamine, penicillin (50 units/ml) and streptomycin (50 μg/ml). 24 h before treatment with different compounds HeLa cells were plated at a density of 5×10^6 per well in 100-mm cell culture dishes to 90% confluences.
The cells were incubated with different drugs at the concentration indicated for 1 h, washed twice with PBS and stimulated with 20 ng/ml TNF alpha (Roche). After 7 min the cells were washed twice with ice cold PBS followed by scraping and transferring into a 1.5 ml micro centrifuge tube. After centrifugation by 2000 rpm for 2 min by 4° C. the PBS supernatant was removed and 200 μl lysis-buffer (10 mM Hepes, pH 7.9, 0.1% NP40, 10 mM, 300 mM Sucrose, 10 mM KCl, 15 mM MgCl2, 1 mM DTT, 0.5 mM PMSF and antipain, aprotinin, leupeptin each 0.75 μg/ml (Sigma) was added to the pellet. The resuspended pellet was incubated on ice for 5 min and centrifuged at 13000 g for 30 s. 30 μl of the supernatant, cytosolic extract, was diluted with Laemmli-buffer (2% SDS, 2% 2-Mercaptoethanol, 0.01% Bromophenol blue, 8% Glycerine), heated by 60° C. for 10 min and loaded to a 4-20% polyacrylamid gels (BioRad). After electrophoresis the proteins were transferred to a nitrocellulose membrane using the wet blotting technique. First the membrane was blocked with Roti-Block (Roth) and afterwards incubated with monoclonal antibodies against P-IkBalpha (Santa Cruz Biotechnology, used at 1:200 dilution). This incubation was followed by the appropriate horseradish peroxidase-conjugated secondary antibody (Dianova) at 1:10000 dilution. Antibody binding was visualized on x-ray film using the Western blot Chemiluminescent Reagent Detection Kit (Santa Cruz).

HeLa cells = assay: Cell viability, WST-1 assay; type: cell-based
Description: […] The medium was changed and 10 μL of the WST-1 reagent was added to each well. After 2 h the absorption of 450 nm was measured in an Elisa-reader.

[2] = tested on: ICAM expression in HUVEC cells; assay: ICAM expression in HUVEC cells by FACS analysis; type: cell-based; details: Homo sapiens, read-out: IC50 for inhibition of ICAM expression
Description: HUVEC cells were seeded in 6-well plates 1×10^6 cells/well. After 24 h the cells were treated with different concentration of compound 68. After 1 h the medium was removed and the cells incubated with either IL-1 (100 pg/ml) or TNF alpha (1 ng/ml) for a total of 4 h. Thereafter the cells were harvested with trypsin, washed with PBS and centrifuged with 1000 rpm for 5 min. The pellet was resuspended in 50 μl PBS and 5 μl CD54-PE antibody (anti-ICAM antibody from Beckman/Coulter/Immunotech). After washing twice in PBS, the ICAM cell surface expression was analysed by a FACScan (Becton Dickinson).

[3] = Solubility tests, 1.2 mg in 500 μl of each solvent; type: physicochemical
Description: Solubility tests were performed with aliquots of compound 4 (1.2 mg) and 500 μl of each solvent.

[4] = Isomerization in solution observed by NMR; type: physicochemical
From the text: These signals were tentatively attributed to a cis/trans isomer of compound 4. The signal intensities of this isomer accounted for approximately 10% of the signals due to the major product. In acetone-db, this isomerization was slower and occurred within days.

NF-kappaB = assay: Electrophoretic mobility shift assay (EMSA) for NF-kappaB in LPS stimulated THP-1 monocytic cells; type: cell-based; details: THP-1 cells; for NF-kappaB activation: LPS
Description: Electrophoretic Mobility Shift Assay (EMSA): THP-1 monocytic cells (DSM, Braunschweig, Germany) were maintained in suspension in RPMI 1640 (Glutamax-1, low endotoxin) containing 7% fetal calf serum (FCS) (Myoclone super plus, low endotoxin), 100 units/ml penicillin, and […] streptomycin (Life Technologies, Inc., Eggenstein, Germany). For the experiments, the cells were plated at a density of 3×10^6 per well in 6-well culture dishes. Nuclear extracts were prepared by harvesting cells by centrifugation at 1200 rpm for 7 min at 4° C. The cells were resuspended by adding 1 ml ice cold PBS and transferred into a microcentrifuge tube. After centrifugation at 2000 g for 2 min by 4° C. the pellet was lysed in 50 μl buffer A (10 mM Hepes, pH 7.9, 0.1% NP40, 10 mM, 300 mM Sucrose, 10 mM KCl, 15 mM MgCl2, 1 mM DTT, 0.5 mM PMSF and antipain, aprotinin, leupeptin each 0.75 μg/ml (Sigma)). After 5 min incubation on ice and centrifugation at 16000 g for 5 sec the pellet was washed with 100 μl buffer A. The nuclear pellet was resuspended with 100 μl buffer B (20 mM Hepes, pH 7.9, 100 mM KCl, 100 mM NaCl, 1 mM DTT, 20% Glycerol, 0.5 mM PMSF and antipain, aprotinin, leupeptin each 0.75 μg/ml (Sigma)) and sonicated for 10 sec. The probe was pulse centrifuged at 16000 g for 5 sec. The nuclear extract was aliquoted and snap-freeze in liquid N2. Nuclear extracts ([…] of protein) were incubated with radiolabeled DNA probes (10 ng; 10^5 cpm) for 30 min at room temperature in […] of binding buffer (20 mM HEPES, pH 7.9, 50 mM KCl, 1 mM dithiothreitol, 0.5 mM EDTA, 10% glycerol, 1 mg/ml bovine serum albumin, 0.2% Nonidet P-40, 50 ng of poly(dI-dC)/ml). […] The binding of Sp-1 and AP-1 was also analysed by EMSA using specific consensus oligonucleotides (Promega, Heidelberg, Germany) that were labeled with [γ-^32P]ATP (>5,000 Ci/mmol, NEN Life Science Products) and T4 polynucleotide kinase (Boehringer Mannheim). Gels were dried and analysed by autoradiography. […]

Structure (SMILES) | effect on IkappaB phosphorylation (Western blot), comparison of COM 73 and COM 54 family [1] | cell viability (WST staining) (HeLa cells; HeLa cells, 33 and 100 μmol/L, one day) | IC50 ([2]; after IL-1 stimulation (100 pg/ml)) [µM] | IC50 ([2]; after TNF alpha stimulation (1 ng/ml)) [µM] | Solubility ([3]; Acetone) | Solubility ([3]; DMSO) | Solubility ([3]; H2O) | Solubility ([3]; MeCN) | Solubility ([3]; MeOH) | signal intensities of the isomer relative to the major product ([4]; DMSO-d6, rt) | time to appearance of second set of NMR signals (cis/trans isomer) ([4]; DMSO-d6, rt) | time of isomerization ([4]; acetone-d6) | NF-kappaB activation (NF-kappaB; 12.5 μM and 25 μM) | NF-kappaB activation (NF-kappaB; 50 μM and 100 μM) | reduced NF-kappaB-release (NF-kappaB; 100 μM, 1 h, LPS 1 μg/ml) [%] | decrease in metabolic activity compared with untreated control (WST-1) (HeLa cells; HeLa cells, 30 μM, 3 h) | influence on cell viability (WST staining) (HeLa cells; HeLa cells, 0.3 to 100 μmol/L, one day) | toxicity for HeLa cells (WST-1) (HeLa cells; concentrations and conditions of the described assays)
O=C(NN=Cc1ccccc1O)c1ccc([N+](=O)[O-])o1 [COM 68, 5-Nitro-furan-2-carboxylic acid (2-hydroxy-benzylidene)-hydrazide] | no effect | decreased cell viability | 7.8 | 4.5 | ++++ (++++: 100% dissolved) | ++++ (++++: 100% dissolved) | − (−: 0% dissolved) | +++ (+++: 80% dissolved) | + (+: 20% dissolved) | approximately 10% | within minutes | within days |  |  |  |  |  | 
O=C(N/N=C/c1ccc(/C=N/NC(=O)c2ccc([N+](=O)[O-])o2)cc1)c1ccc([N+](=O)[O-])o1 [Compound 54] | no effect |  |  |  |  |  |  |  |  |  |  |  | significantly affected | nearly completely abolished | 95 | no significant decrease | no negative influence | not found to be toxic
